7 molecules from patent US20230321123A1, “INHIBITORS OF PSEUDOMONAS AERUGINOSA VIRULENCE FACTOR LasB” (Helmholtz-Zentrum Für Infektionsforschung GmbH, priority 2020, published 2023) can be followed below.

Data set [1] addresses T1, MMP-1 (Homo sapiens, UniProt P03956).
T1 sequence (P03956 100-469): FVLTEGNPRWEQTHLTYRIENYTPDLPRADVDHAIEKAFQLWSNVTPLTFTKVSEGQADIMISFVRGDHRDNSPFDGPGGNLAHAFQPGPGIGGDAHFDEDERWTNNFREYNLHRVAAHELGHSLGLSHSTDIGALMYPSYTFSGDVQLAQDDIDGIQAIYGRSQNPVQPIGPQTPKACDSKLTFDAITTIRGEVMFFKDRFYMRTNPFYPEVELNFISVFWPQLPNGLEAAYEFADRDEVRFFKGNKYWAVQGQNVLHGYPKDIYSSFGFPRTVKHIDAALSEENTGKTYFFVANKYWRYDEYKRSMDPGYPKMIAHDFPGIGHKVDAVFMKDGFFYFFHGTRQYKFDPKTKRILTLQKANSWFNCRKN
In words: Selectivity against human off-targets: MMP-1. Conditions: read-out: Inhibition [%] MMP-1. The format is biochemical. An excerpt: (§1) The inhibition of zinc-containing human enzymes is described frequently for LasB inhibitors and poses a serious difficulty in the development of selective compounds. Particularly, the inhibition of matrix metalloproteases (MMPs) should be avoided. To further investigate this issue, three derivatives (the compounds of examples 1, 5 and 8) have been tested for their selectivity against several human off-targets, including six MMPs, ADAM17 (TACE), HDAC-3 and HDAC-8 (Table 4). The selectivity of the compounds is particularly high for MMPs and HDACs, whereas the inhibition of ADAM17 was considerably stronger.

In data set [2] the target is COX-1 (Homo sapiens, UniProt P23219). As to the kind of experiment: Selectivity against off-targets: COX-1. The class given is biochemical.
The target of data set [3] is MMP-3 (Homo sapiens, UniProt P08254). In words: Selectivity against human off-targets: MMP-3. The format is biochemical. The settings on record: read-out: Inhibition [%] MMP-3.
Source text: as §1

The target in data set [4] is T2, MMP-2 (Homo sapiens, UniProt P08253).
T2 sequence (P08253 110-660): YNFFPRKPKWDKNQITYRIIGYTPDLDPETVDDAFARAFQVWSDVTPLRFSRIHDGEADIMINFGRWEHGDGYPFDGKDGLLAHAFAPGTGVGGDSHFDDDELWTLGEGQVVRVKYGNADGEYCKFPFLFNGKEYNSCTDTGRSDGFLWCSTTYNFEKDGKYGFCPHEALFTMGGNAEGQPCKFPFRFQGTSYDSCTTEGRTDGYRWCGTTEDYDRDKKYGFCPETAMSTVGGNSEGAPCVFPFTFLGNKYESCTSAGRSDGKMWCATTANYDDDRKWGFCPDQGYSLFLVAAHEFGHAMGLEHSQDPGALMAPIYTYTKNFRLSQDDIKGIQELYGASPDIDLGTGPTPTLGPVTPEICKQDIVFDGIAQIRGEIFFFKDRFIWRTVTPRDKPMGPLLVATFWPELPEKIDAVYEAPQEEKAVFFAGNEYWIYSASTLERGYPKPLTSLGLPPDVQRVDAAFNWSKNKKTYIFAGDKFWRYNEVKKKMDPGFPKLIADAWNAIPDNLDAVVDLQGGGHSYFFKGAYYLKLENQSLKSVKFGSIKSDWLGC
In words: Selectivity against human off-targets: MMP-2. Conditions: read-out: Inhibition [%] MMP-2. The format is biochemical.
Source text: as §1

Data set [5] deals with ADAM17 (TACE) (Homo sapiens, UniProt P78536). In words: Selectivity against human off-targets: ADAM17 (TACE). The class given is biochemical.
A short description of data set [6]: Cytotoxicity A549. The format is cell-based. Conditions: human. Here is the method: (§2) The compounds of examples 1 and 5 were not toxic against the cell lines HepG2, HEK293 and A549 (Table 5). Additionally, the inhibitory effect against P. aeruginosa PA14 was evaluated to exclude an antibacterial effect of the compounds of the present invention. This is important as it was the aim to target virulence and not viability of the bacteria. […]

Data set [7] deals with P. aeruginosa PA14. As to the kind of experiment: PA14 inhibition (MIC, antibacterial effect). The format is cell-based. How it is done: as §2
Data set [8] has as its target LasB (Pseudomonas aeruginosa, UniProt Q02RJ6). In words: biochemical. On the set-up: species or system P. aeruginosa.
The nature of data set [9]: Cytotoxicity HEK293. The class given is cell-based. Conditions: human. Here is the method:
as §2

Data set [10] in a line: Cytotoxicity HepG2. The format is cell-based. The settings on record: human. How it is done: as §2
Data set [11] deals with MMP-8 (Homo sapiens, UniProt P22894). As to the kind of experiment: Selectivity against human off-targets: MMP-8. The settings on record: read-out: Inhibition [%] MMP-8. The class given is biochemical.
Source text: as §1

The target of data set [12] is MMP-14 (Homo sapiens, UniProt P50281). As to the kind of experiment: Selectivity against human off-targets: MMP-14. The format is biochemical. Conditions: read-out: Inhibition [%] MMP-14.
Source text: as §1

In data set [13] the target is HDAC-3 (Homo sapiens, UniProt O15379). As to the kind of experiment: Selectivity against human off-targets: HDAC-3. The format is biochemical.
Source text: as §1

Data set [14] deals with T3, MMP-7 (Homo sapiens, UniProt P09237).
T3 sequence (P09237 95-267): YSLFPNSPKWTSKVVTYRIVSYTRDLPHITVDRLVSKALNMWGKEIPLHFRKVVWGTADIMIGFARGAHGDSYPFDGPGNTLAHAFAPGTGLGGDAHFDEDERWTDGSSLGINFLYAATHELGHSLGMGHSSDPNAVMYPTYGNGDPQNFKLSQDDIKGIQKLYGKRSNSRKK
As to the kind of experiment: Selectivity against human off-targets: MMP-7. The format is biochemical. The settings on record: read-out: Inhibition [%] MMP-7.
Source text: as §1

The target of data set [15] is T4, HDAC-8 (Homo sapiens, UniProt Q9BY41).
T4 sequence (Q9BY41 1-377): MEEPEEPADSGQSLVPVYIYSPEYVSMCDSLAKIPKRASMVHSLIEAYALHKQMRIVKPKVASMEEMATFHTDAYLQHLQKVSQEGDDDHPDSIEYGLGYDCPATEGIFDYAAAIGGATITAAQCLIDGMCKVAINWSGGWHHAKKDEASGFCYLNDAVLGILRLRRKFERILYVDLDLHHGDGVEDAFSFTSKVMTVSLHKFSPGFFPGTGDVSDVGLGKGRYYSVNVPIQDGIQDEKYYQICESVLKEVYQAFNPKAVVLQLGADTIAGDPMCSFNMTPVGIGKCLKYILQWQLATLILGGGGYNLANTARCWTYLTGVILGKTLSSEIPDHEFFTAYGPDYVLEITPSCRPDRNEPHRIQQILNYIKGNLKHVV
As to the kind of experiment: Selectivity against human off-targets: HDAC-8. The class given is biochemical.
Source text: as §1

The mark [16] stands for this setting: Pseudomonas aeruginosa, PA14; read-out: MIC PA14.

SMILES strings stand for the structures. Where two headings read alike, the source gives them in different places.

Chain of HDAC-3 (O15379 whole entry): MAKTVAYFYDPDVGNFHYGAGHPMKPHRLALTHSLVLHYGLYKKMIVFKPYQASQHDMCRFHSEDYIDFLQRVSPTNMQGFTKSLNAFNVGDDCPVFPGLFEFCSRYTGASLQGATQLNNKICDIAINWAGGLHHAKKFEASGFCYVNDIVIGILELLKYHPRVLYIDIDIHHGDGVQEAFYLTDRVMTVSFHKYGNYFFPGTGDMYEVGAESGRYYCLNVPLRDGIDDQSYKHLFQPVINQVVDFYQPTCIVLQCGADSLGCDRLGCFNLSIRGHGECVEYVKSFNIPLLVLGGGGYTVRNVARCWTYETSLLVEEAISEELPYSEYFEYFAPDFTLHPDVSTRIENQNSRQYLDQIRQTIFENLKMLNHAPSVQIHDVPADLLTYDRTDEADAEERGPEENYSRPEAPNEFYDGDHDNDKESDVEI
Chain of HDAC-3 (Q9Y618 395-489 partner limits assumed): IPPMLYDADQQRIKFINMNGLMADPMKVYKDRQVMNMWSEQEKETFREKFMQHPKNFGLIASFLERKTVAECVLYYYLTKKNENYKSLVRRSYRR
Chain of LasB (Q02RJ6 198-498): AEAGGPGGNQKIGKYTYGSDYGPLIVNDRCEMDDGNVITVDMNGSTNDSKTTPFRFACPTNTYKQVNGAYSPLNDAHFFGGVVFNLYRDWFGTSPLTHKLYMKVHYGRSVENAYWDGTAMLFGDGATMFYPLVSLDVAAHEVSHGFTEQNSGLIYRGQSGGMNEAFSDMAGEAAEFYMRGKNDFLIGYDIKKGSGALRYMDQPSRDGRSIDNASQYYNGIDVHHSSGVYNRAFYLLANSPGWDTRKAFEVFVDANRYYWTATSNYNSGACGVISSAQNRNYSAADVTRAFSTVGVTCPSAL
Chain of MMP-3 (P08254 100-477): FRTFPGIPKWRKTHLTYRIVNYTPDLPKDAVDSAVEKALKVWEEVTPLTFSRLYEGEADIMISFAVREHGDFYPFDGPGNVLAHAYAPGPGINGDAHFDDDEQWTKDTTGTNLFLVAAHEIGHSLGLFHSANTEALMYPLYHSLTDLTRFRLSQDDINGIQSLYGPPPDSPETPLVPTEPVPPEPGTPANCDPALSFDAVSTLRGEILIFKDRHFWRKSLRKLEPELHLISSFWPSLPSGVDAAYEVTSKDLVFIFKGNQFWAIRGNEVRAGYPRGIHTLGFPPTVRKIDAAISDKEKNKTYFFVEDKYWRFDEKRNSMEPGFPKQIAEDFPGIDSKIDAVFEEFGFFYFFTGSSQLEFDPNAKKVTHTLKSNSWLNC
Chain of MMP-8 (P22894 101-467): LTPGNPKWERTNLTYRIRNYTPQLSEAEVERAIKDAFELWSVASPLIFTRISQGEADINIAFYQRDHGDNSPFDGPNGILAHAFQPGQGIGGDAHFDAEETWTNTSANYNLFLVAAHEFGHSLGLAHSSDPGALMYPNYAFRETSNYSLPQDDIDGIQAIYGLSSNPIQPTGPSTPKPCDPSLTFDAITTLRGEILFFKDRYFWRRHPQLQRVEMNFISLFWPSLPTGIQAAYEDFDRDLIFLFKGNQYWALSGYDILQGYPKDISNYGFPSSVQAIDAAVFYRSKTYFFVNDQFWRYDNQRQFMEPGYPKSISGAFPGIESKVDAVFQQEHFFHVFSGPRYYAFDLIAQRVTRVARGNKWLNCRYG
Chain of ADAM17 (TACE) (P78536 215-824): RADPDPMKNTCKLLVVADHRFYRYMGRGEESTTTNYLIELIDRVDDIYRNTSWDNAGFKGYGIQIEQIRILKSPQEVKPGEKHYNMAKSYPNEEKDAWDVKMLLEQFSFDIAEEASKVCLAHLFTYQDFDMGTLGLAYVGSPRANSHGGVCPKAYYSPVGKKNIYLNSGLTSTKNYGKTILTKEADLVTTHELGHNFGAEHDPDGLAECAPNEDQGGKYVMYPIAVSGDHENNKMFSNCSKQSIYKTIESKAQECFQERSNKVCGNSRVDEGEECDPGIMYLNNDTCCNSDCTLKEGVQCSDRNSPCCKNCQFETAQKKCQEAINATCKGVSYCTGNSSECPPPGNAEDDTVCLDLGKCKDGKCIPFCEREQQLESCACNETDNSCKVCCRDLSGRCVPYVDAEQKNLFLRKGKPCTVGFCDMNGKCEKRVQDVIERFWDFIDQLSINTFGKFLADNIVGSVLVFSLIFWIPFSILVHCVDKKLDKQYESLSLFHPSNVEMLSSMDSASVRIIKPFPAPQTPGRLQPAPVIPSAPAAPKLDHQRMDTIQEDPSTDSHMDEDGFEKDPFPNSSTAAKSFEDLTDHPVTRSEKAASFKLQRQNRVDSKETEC
Chain of COX-1 (P23219 24-599): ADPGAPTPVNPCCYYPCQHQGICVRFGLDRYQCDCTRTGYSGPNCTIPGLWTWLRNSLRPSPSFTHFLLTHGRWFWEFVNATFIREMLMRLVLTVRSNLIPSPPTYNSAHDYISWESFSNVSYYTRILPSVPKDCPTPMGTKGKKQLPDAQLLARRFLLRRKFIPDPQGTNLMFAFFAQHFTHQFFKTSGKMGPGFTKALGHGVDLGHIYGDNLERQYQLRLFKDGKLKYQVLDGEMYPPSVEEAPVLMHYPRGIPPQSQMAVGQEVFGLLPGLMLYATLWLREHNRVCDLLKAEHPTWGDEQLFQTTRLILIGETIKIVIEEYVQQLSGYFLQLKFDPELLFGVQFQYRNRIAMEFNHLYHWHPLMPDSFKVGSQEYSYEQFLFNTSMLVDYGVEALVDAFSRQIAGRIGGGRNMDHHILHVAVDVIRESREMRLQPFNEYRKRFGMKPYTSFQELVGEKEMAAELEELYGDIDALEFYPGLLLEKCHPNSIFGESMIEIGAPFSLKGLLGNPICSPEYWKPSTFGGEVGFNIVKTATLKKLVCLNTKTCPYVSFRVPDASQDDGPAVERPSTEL

The inhibition is the relative decrease from the control value, in per cent. The IC50 is the point on the concentration scale where inhibition reaches its midpoint. One may read the MIC as the least concentration at which growth counts as inhibited. Consider `CC(C)CC(C(=O)N[C@H](c1cn(-c2ccc(Cl)c(Cl)c2)nn1)C(C)C)P(=O)(O)O` (mixture of isomers) [Example 170, (1-(((S)-1-(1-(3,4-dichlorophenyl)-1H-1,2,3-triazol-4-yl)-2-methylpropyl)amino)-4-methyl-1-oxopentan-2-yl)phosphonic acid], for which the inhibition at 100 µM was 11% in data set [1] (at 100 μM); less than 10% in data set [2]; less than 10% in data set [3] (at 100 μM); less than 10% in data set [4] (at 100 μM); less than 10% in data set [5] (at 100 μM). Moreover, the IC50 is greater than 100 µM in [6] (A549); 60 ± 3 µM in data set [8] (IC50 against LasB (Table 16), heteropentacycles and benzannulated heteropentacycles); greater than 100 µM in [9] (HEK293); greater than 100 µM in data set [10] (HepG2). For the same molecule, the MIC in data set [7] (setting [16]) was greater than 100 µM.
On to `O=C(Nc1ccccc1)C(S)Cc1ccccc1` (racemic) [Example 1, 2-Mercapto-N,3-diphenylpropanamide], for which the inhibition at 100 µM in data set [1] was less than 10%; in [11], 34 ± 11%; in [3] it was less than 10%; in data set [4], less than 10%; in [12] it was less than 10%; in [14] it was less than 10%. Moreover, the IC50 in data set [5] (read-out: IC50 ADAM17 (TACE)) is 2.2 ± 0.1 µM; in data set [6] (A549) it was greater than 100 µM; in data set [8] (IC50 against LasB), 1.2 ± 0.1 µM; in [9] (HEK293), greater than 100 µM; in data set [13] (read-out: IC50 HDAC-3), greater than 100 µM; in data set [10] (HepG2) it was greater than 100 µM. Besides, in data set [15] (read-out: IC50 HDAC-8), the IC50 is greater than 100 µM. For the same molecule, the MIC in [7] (Pseudomonas aeruginosa, PA14, read-out: MIC PA14) is greater than 100 µM.
Turning to `O=C(Nc1ccc(O)cc1)C(S)Cc1ccccc1` (stereo not shown) [Example 5], the inhibition at 100 µM in [11] (at 100 μM) was found to be 19 ± 4%. In addition, the IC50 was 2.3 ± 1.4 µM in [5] (read-out: IC50 ADAM17 (TACE)); greater than 100 µM in [6] (A549); 0.59 ± 0.04 µM in [8] (IC50 against LasB); greater than 100 µM in data set [9] (HEK293); greater than 100 µM in data set [10] (HepG2).
For the molecule `Cc1ccc(NC(=O)C(CC(C)C)P(=O)(O)O)cc1` (stereo not shown) [Example 63, (4-Methyl-1-oxo-1-(p-tolylamino)pentan-2-yl)phosphonic acid], the inhibition at 100 µM in data set [1] (at 100 μM) was less than 10%; in data set [11] (at 100 μM) it was 10%; in [3] (at 100 μM), less than 10%; in [4] (at 100 μM), less than 10%; in data set [12] (at 100 μM) it was 12 ± 7%; in data set [14] (at 100 μM), less than 10%. In addition, the half-maximal inhibitory concentration (IC50) in data set [5] is greater than 100 µM; in data set [6] (A549 cells), greater than 100 µM; in [8] (IC50 against LasB), 0.051 ± 0.007 µM; in data set [9] (HEK293 cells), greater than 100 µM; in [13], greater than 100 µM; in data set [10] (HepG2 cells), greater than 100 µM. Besides, the IC50 in data set [15] is greater than 100 µM. Also, the MIC in data set [7] (setting [16]) is greater than 100 µM.
For `Cc1ccc(NC(=O)C(CC(C)C)C(=O)NO)cc1` (stereo not shown) [Example 173, N^1-hydroxy-2-isobutyl-N^3-(p-tolyl)malonamide], the inhibition at 100 µM in [1] (at 100 μM) was 29 ± 3%; in data set [3] (at 100 μM) it was 16 ± 7%; in [4] (at 100 μM), 26 ± 2%. The IC50 is 16 ± 2 µM in [5] (read-out: IC50 ADAM17 (TACE)); greater than 100 µM in data set [6] (A549); 0.014 ± 0.001 µM in data set [8] (IC50 against LasB); greater than 100 µM in [9] (HEK293); greater than 100 µM in data set [13] (read-out: IC50 HDAC-3); greater than 100 µM in [10] (HepG2). Besides, in data set [15] (read-out: IC50 HDAC-8), the IC50 was greater than 100 µM. In addition, in [7] (setting [16]), the MIC was greater than 100 µM.
For the molecule `Cc1ccc(NC(=O)C(CC(C)C)n2ccnn2)cc1` (stereo not shown) [Example 174, 4-Methyl-N-(p-tolyl)-2-(1H-1,2,3-triazol-1-yl)pentanamide], in data set [3] (at 100 μM), the inhibition at 100 µM was -3 ± 17%. In addition, the IC50 in data set [5] (read-out: IC50 ADAM17 (TACE)) was greater than 100 µM; in data set [6] (A549) it was greater than 100 µM; in data set [8] (IC50 against LasB), 2.8 ± 0.1 µM; in data set [9] (HEK293) it was greater than 100 µM; in [13] (read-out: IC50 HDAC-3) it was greater than 100 µM; in data set [10] (HepG2), greater than 100 µM. Besides, the IC50 in data set [15] (read-out: IC50 HDAC-8) was greater than 100 µM. For the same molecule, in data set [7] (setting [16]), the MIC was greater than 100 µM.
For `Cc1ccc(NC(=O)C(CC(C)C)n2nccn2)cc1` (stereo not shown) [Example 177, 4-Methyl-N-(p-tolyl)-2-(2H-1,2,3-triazol-2-yl)pentanamide], the inhibition at 100 µM in data set [1] (at 100 μM) turned out to be 7 ± 4%. The IC50 in [5] (read-out: IC50 ADAM17 (TACE)) is greater than 100 µM; in data set [6] (A549) it was greater than 100 µM; in [8] (IC50 against LasB), 5.3 ± 0.2 µM; in [9] (HEK293) it was greater than 100 µM; in data set [13] (read-out: IC50 HDAC-3), greater than 100 µM; in data set [10] (HepG2) it was greater than 100 µM. For the same molecule, the half-inhibitory concentration (IC50) in [15] (read-out: IC50 HDAC-8) was greater than 100 µM. For the same molecule, the MIC in data set [7] (setting [16]) was greater than 100 µM.
